Laboratory results from patent publication US20250034164A1, “NOVEL COMPOUND AND COMPOSITION FOR PREVENTING OR TREATING NEUROINFLAMMATORY BRAIN DISEASES COMPRISING SAME AS ACTIVE INGREDIENT” (KOREA INSTITUTE OF OCEAN SCIENCE & TECHNOLOGY, priority 2021, published 2025).

Tested on: nitric oxide (NO) produced in mouse BV-2 microglia cells stimulated with LPS
Test: NO production inhibition in LPS-stimulated BV-2 microglia cells (Griess reagent)
Format: cell-based
Conditions: BV-2 cells, LPS 200 ng/ml, treated at 2.5 to 20 PM (FIG. 37A)
Description: BV-2 microglia cells were cultured in a humidified 5% CO2 incubator at 37° C. using a Dulbecco's modified Eagle medium supplemented with 5% fetal bovine serum and 1% penicillin/streptomycin at 100 units/mL.
In all experiments, the number of cells was 2.5×10^5 cell/ml, the cells were first treated with each of Compounds of Examples 1 to 25 by concentration (2.5 to 200 μg/ml), and LPS was diluted in medium and used at a concentration of 200 ng/ml. A cytotoxicity test was performed using MTT assay, and the MTT assay was performed by performing NO assay and injecting 30 μl of MTT at a concentration of 0.5 mg/ml into the cells in a microplate. After reacting for 2 hours in the incubator, formazan crystals were dissolved in 100 μl of DMSO, and the absorbance was measured using a Vmax microplate reader (Tencan Co., Switzerland) with a wavelength of 540 nm. In order to quantitatively measure the production of nitric oxide (NO), mouse BV-2 microglia cells were prepared in a microplate (96 well), and added with LPS (200 ng/ml) and Compounds by concentration (2.5 to 200 μg/ml). The cells reacted in an incubator for 24 h, and 50 μl of the supernatant reacted with a Griess reagent (a mixed solution of 1% sulfanilamide, 0.1% N-(1-naphthyl)-ethylenediamine dihydrochloride, and 2.5% H3PO4), and then the absorbance was measured using a Vmax 96-well microplate spectrophotometer with a wavelength of 550 nm.
In order to analyze the anti-inflammatory efficacy of Compound of Example 1, the concentration inhibitory effect of nitric oxide (NO) produced in mouse BV-2 microglia cells stimulated with LPS (200 ng/ml), a neuroinflammatory factor, was confirmed.
The neuroinflammation inhibitory effects of Compounds of Examples 2 to 25 were confirmed.
In order to analyze the anti-inflammatory efficacy of Compound 26 of Chemical Formula 2, the concentration inhibitory effect of nitric oxide (NO) produced in mouse BV-2 microglia cells stimulated with LPS (200 ng/ml), a neuroinflammatory factor, was confirmed. Compound 26 of Chemical Formula 2 was purchased from Santa Cruz biotechnology (CAS 79127-35-8) and the experiment was performed. As a result of treating Compound of Chemical Formula 2 at […], it was confirmed that the amount of nitric oxide (NO) was reduced, as shown in FIG. 37A.

SMILES	amount of nitric oxide (NO)
NC(=O)C1=C[C@H]2[C@@H]3C=CC2(O)C(=O)O[C@@H]3O1 (stereo in doubt) [Compound 26, (1S,4aS,5R,7aS)-5-hydroxy-8-oxo-1,4a,5,7a-tetrahydro-1,5-(epoxymethano)cyclopenta[c]pyran-3-carboxamide]	reduced

Same assay, conditions: mouse BV-2 microglia cells, LPS 200 ng/ml, 24 h; read-out: NO inhibitory activity (IC50 value)

IC50	SMILES
> 20 µM	CC(=O)OCC1=C[C@H]2[C@@H]3C=C[C@H]2C(=O)O[C@@H]3O1 [Compound 2, ((1S,4aS,5R,7aS)-8-oxo-1,4a,5,7a-tetrahydro-1,5-(epoxymethano)cyclopenta[c]pyran-3-yl)methyl acetate]
> 20 µM	COCC1=C[C@H]2[C@@H]3C=C[C@H]2C(=O)O[C@@H]3O1 [Compound 3, (1S,4aS,5R,7aS)-3-(methoxymethyl)-1,4a,5,7a-tetrahydro-1,5-(epoxymethano)cyclopenta[c]pyran-8-one]
> 20 µM	O=C(O)C1=C[C@H]2[C@@H]3C=C[C@H]2C(=O)O[C@@H]3O1 [Compound 5, (1S,4aS,5R,7aS)-8-oxo-1,4a,5,7a-tetrahydro-1,5-(epoxymethano)cyclopenta[c]pyran-3-carboxylic acid]
> 20 µM	O=C(OCC1=C[C@H]2[C@@H]3C=C[C@H]2C(=O)O[C@@H]3O1)c1ccccc1 [Compound 7, ((1S,4aS,5R,7aS)-8-oxo-1,4a,5,7a-tetrahydro-1,5-(epoxymethano)cyclopenta[c]pyran-3-yl)methyl benzoate]
> 20 µM	C=CCCCCCCCCC(=O)OCC1=C[C@H]2[C@@H]3C=C[C@H]2C(=O)O[C@@H]3O1 [Compound 8, ((1S,4aS,5R,7aS)-8-oxo-1,4a,5,7a-tetrahydro-1,5-(epoxymethano)cyclopenta[c]pyran-3-yl)methylundec-10-enoate]
> 20 µM	CCC(C)C(=O)OCC1=C[C@H]2[C@@H]3C=C[C@H]2C(=O)O[C@@H]3O1 (stereo partly drawn) [Compound 9, ((1S,4aS,5R,7aS)-8-oxo-1,4a,5,7a-tetrahydro-1,5-(epoxymethano)cyclopenta[c]pyran-3-yl)methyl 2-methyl butanoate]
> 20 µM	Cc1ccc(C(=O)OCC2=C[C@H]3[C@@H]4C=C[C@H]3C(=O)O[C@@H]4O2)cc1 [Compound 10, ((1S,4aS,5R,7aS)-8-oxo-1,4a,5,7a-tetrahydro-1,5-(epoxymethano)cyclopenta[c]pyran-3-yl)methyl 4-methyl benzoate]
> 20 µM	COc1ccc(C(=O)OCC2=C[C@H]3[C@@H]4C=C[C@H]3C(=O)O[C@@H]4O2)cc1 [Compound 11, ((1S,4aS,5R,7aS)-8-oxo-1,4a,5,7a-tetrahydro-1,5-(epoxymethano)cyclopenta[c]pyran-3-yl)methyl 4-methoxybenzoate]
> 20 µM	O=C(OCC1=C[C@H]2[C@@H]3C=C[C@H]2C(=O)O[C@@H]3O1)c1ccc(-c2ccccc2)cc1 [Compound 12, ((1S,4aS,5R,7aS)-8-oxo-1,4a,5,7a-tetrahydro-1,5-(epoxymethano)cyclopenta[c]pyran-3-yl)methyl [1,1′-biphenyl]-4-carboxylate]
> 20 µM	O=C(OCC1=C[C@H]2[C@@H]3C=C[C@H]2C(=O)O[C@@H]3O1)c1ccc2ccccc2c1 [Compound 13, ((1S,4aS,5R,7aS)-8-oxo-1,4a,5,7a-tetrahydro-1,5-(epoxymethano)cyclopenta[c]pyran-3-yl)methyl 2-naphthoate]
1.4 µM	C#CC(=O)OCC1=C[C@H]2[C@@H]3C=C[C@H]2C(=O)O[C@@H]3O1 [Compound 14, ((1S,4aS,5R,7aS)-8-oxo-1,4a,5,7a-tetrahydro-1,5-(epoxymethano)cyclopenta[c]pyran-3-yl)methyl propiolate]
12.4 µM	C#CC/N=C/C1=C[C@H]2[C@@H]3C=C[C@H]2C(=O)O[C@@H]3O1 [Compound 15, (1S,4aS,5R,7aS)-3-((E)-(prop-2-yn-1-ylimino)methyl)-1,4a,5,7a-tetrahydro-1,5-(epoxymethano)cyclopenta[c]pyran-8-one]
3.8 µM	O=C(OCC1=C[C@H]2[C@@H]3C=C[C@H]2C(=O)O[C@@H]3O1)c1cccc2c1-c1ccccc1C2=O [Compound 16, ((1S,4aS,5R,7aS)-8-oxo-1,4a,5,7a-tetrahydro-1,5-(epoxymethano)cyclopenta[c]pyran-3-yl)methyl 9-oxo-9H-fluorene-4-carboxylate]
> 20 µM	O=C(OCC1=C[C@H]2[C@@H]3C=C[C@H]2C(=O)O[C@@H]3O1)c1cc2ccccc2o1 [Compound 17, ((1S,4aS,5R,7aS)-8-oxo-1,4a,5,7a-tetrahydro-1,5-(epoxymethano)cyclopenta[c]pyran-3-yl)methyl benzofuran-2-carboxylate]
> 20 µM	O=C(OCC1=C[C@H]2[C@@H]3C=C[C@H]2C(=O)O[C@@H]3O1)c1ccc(F)cc1 [Compound 18, ((1S,4aS,5R,7aS)-8-oxo-1,4a,5,7a-tetrahydro-1,5-(epoxymethano)cyclopenta[c]pyran-3-yl)methyl 4-fluorobenzoate]
14.5 µM	O=C(OCC1=C[C@H]2[C@@H]3C=C[C@H]2C(=O)O[C@@H]3O1)c1ccc(Cl)cc1 [Compound 19, ((1S,4aS,5R,7aS)-8-oxo-1,4a,5,7a-tetrahydro-1,5-(epoxymethano)cyclopenta[c]pyran-3-yl)methyl 4-chlorobenzoate]
> 20 µM	O=C(OCC1=C[C@H]2[C@@H]3C=C[C@H]2C(=O)O[C@@H]3O1)c1ccc(I)cc1 [Compound 20, ((1S,4aS,5R,7aS)-8-oxo-1,4a,5,7a-tetrahydro-1,5-(epoxymethano)cyclopenta[c]pyran-3-yl)methyl 4-iodobenzoate]
> 20 µM	O=C(OCC1=C[C@H]2[C@@H]3C=C[C@H]2C(=O)O[C@@H]3O1)c1ccc([N+](=O)[O-])cc1 [Compound 21, ((1S,4aS,5R,7aS)-8-oxo-1,4a,5,7a-tetrahydro-1,5-(epoxymethano)cyclopenta[c]pyran-3-yl)methyl 4-nitrobenzoate]
> 20 µM	O=C1O[C@@H]2OC(CI)=C[C@H]3[C@@H]2C=C[C@@H]13 [Compound 22, (1S,4aS,5R,7aS)-3-(iodomethyl)-1,4a,5,7a-tetrahydro-1,5-(epoxymethano)cyclopenta[c]pyran-8-one]
> 20 µM	O=C1O[C@@H]2OC(CBr)=C[C@H]3[C@@H]2C=C[C@@H]13 [Compound 23, (1S,4aS,5R,7aS)-3-(bromomethyl)-1,4a,5,7a-tetrahydro-1,5-(epoxymethano)cyclopenta[c]pyran-8-one]
< 20 µM	O=C1O[C@@H]2OC(CO)=C(Br)[C@H]3[C@@H]2C=C[C@@H]13 [Compound 24, (1S,4aS,5R,7aS)-4-bromo-3-(hydroxymethyl)-1,4a,5,7a-tetrahydro-1,5-(epoxymethano)cyclopenta[c]pyran-8-one]
> 20 µM	O=C1O[C@@H]2OC(CCl)=C[C@H]3[C@@H]2C=C[C@@H]13 [Compound 25, (1S,4aS,5R,7aS)-3-(chloromethyl)-1,4a,5,7a-tetrahydro-1,5-(epoxymethano)cyclopenta[c]pyran-8-one]
